Patent publication US20200060276A1, “THIAZOLE COMPOUND AND HERBICIDE” (OAT Agrio Co., Ltd., priority 2017, published 2020)

Columns and labels:
Assay type in all cases: in vivo
[1] = system: Echinochloa crus-galli (L.) P. Beauv. var. formosensis Ohwi; test: Test for Herbicidal Effect in Flooding Treatment (#1), ECHDG; details: for ECHDG #1 herbicidal effect (growth inhibition grade): flooding treatment at seeding, dose 2 kg/ha, visual observation on day 21; for ECHDG #1 herbicidal effect (growth inhibition rating 0-5): flooding treatment #1
Protocol: (§1) (#1) Test for Herbicidal Effect in Flooding Treatment: Styrol cups each having an opening diameter of 8 cm (about 52 cm^2) were respectively filled with soil (45 ml) which had been passed through a sieve (2 mm). Water (about 115 ml) was mixed with the soil such that the soil was flooded. After the soil stood still for 24 hours, Monochoria vaginalis, Echinochloa crus-galli (L.) P. Beauv. var. formosensis Ohwi, Cyperus difformis (umbrella sedge), and Scirpus juncoides were seeded. Each of the compounds of the present invention was dissolved in acetone, and the obtained product was then diluted with water containing Tween 80®. Each of the resultant chemical solutions was dropped on the entire surface of an associated one of treatment sections, so that each section was treated with 1 ml of the respective chemical solution (a dose of 2 kg/ha). After the treatment, the plants were grown in a glasshouse. On day 21, a survey was conducted on the herbicidal activity by visual observation, and evaluation was made according to the following criteria. 0: Growth inhibition effect is less than 10%. 1: Growth inhibition effect is equal to or greater than 10%, and less than 30%. 2; Growth inhibition effect is equal to or greater than 30%, and less than 50%. 3: Growth inhibition effect equal to or greater than 50%, and less than 70%. 4: Growth inhibition effect is equal to or greater than 70%, and less than 90%. 5: Growth inhibition effect is equal to or greater than 90%, or complete withering is achieved. ECHDG=Echinochloa crus-galli (L.) P. Beauv. var. formosensis Ohwi, MONVA=Monochoria vaginalis, SCIJU=Scirpus juncoides, CYMIC=Cyperus microiria.

Monochoria vaginalis = test: Test for Herbicidal Effect in Flooding Treatment (#1), MONVA; details: for MONVA #1 herbicidal effect (growth inhibition grade): flooding treatment at seeding, dose 2 kg/ha, visual observation on day 21; for MONVA #1 herbicidal effect (growth inhibition rating 0-5): flooding treatment #1
Protocol: as §1

Scirpus juncoides = test: Test for Herbicidal Effect in Flooding Treatment (#1), SCIJU; details: for SCIJU #1 herbicidal effect (growth inhibition grade): flooding treatment at seeding, dose 2 kg/ha, visual observation on day 21; for SCIJU #1 herbicidal effect (growth inhibition rating 0-5): flooding treatment #1
Protocol: as §1

[2] = system: Echinochloa crus-galli (L.) P. Beauv. var. formosensis Ohwi; test: Test for Herbicidal Effect in Flooding Treatment (#2), ECHDG at 2-2.5 leaf stage; details: for ECHDG (2-2.5L) #2 herbicidal effect (growth inhibition grade): flooding treatment at 2-2.5 leaf stage, dose 0.2 kg/ha, visual observation on day 21; for ECHDG (2-2.5L) #2 herbicidal effect (growth inhibition rating 0-5): flooding treatment #2, 2-2.5 leaf stage
Protocol: (#2) Test for Herbicidal Effect in Flooding Treatment: Styrol cups each having an opening diameter of 13 cm (about 130 cm^2) were respectively filled with muddy soil (500 ml). Water (about 300 ml) was mixed with the soil such that the soil was flooded. After the soil stood still for 24 hours, Echinochloa crus-galli (L.) P. Beauv. var. formosensis Ohwi was seeded. When the Echinochloa crus-galli (L.) P. Beauv. var. formosensis Ohwi grew to reach 2-2.5 leaf stage, chemical solutions were dropped on the entire surface of treatment sections, so that each section is treated with 1 ml of the respective chemical solution (a dose of 0.2 kg/ha). Each of the chemical solutions was prepared by dissolving associated one of the compounds of the present invention in acetone, followed by dilution with water containing Tween 80 g. After the treatment, the plants were grown in a glasshouse. On day 21, a survey was conducted on the herbicidal activity by visual observation, and evaluation was made according to the following criteria. 0: Growth inhibition effect is less than 10%. 1: Growth inhibition effect is equal to or greater than 10%, and less than 30%. 2; Growth inhibition effect is equal to or greater than 30%, and less than 50%. 3: Growth inhibition effect equal to or greater than 50%, and less than 70%. 4: Growth inhibition effect is equal to or greater than 70%, and less than 90%. 5: Growth inhibition effect is equal to or greater than 90%, or complete withering is achieved. ECHDG=Echinochloa crus-galli (L.) P. Beauv. var. formosensis Ohwi, MONVA=Monochoria vaginalis, SCIJU=Scirpus juncoides, CYMIC=Cyperus microiria. The herbicidal activity of the following comparative compounds A and B (the compounds disclosed Japanese Unexamined Patent Publication No. 2003-096059) were evaluated in a manner pursuant to Test Example 1. (#2).

Structure (SMILES) | ECHDG #1 herbicidal effect (growth inhibition grade) [1] | MONVA #1 herbicidal effect (growth inhibition grade) (Monochoria vaginalis) | SCIJU #1 herbicidal effect (growth inhibition grade) (Scirpus juncoides) | ECHDG (2-2.5L) #2 herbicidal effect (growth inhibition grade) [2] | ECHDG #1 herbicidal effect (growth inhibition rating 0-5) [1] | MONVA #1 herbicidal effect (growth inhibition rating 0-5) (Monochoria vaginalis) | SCIJU #1 herbicidal effect (growth inhibition rating 0-5) (Scirpus juncoides) | ECHDG (2-2.5L) #2 herbicidal effect (growth inhibition rating 0-5) [2]
O=S(=O)(Cc1c(OC(F)F)ccc(Cl)c1F)c1ncc(Cl)s1 [Compound 1C-45] | 5 (Growth inhibition effect is equal to or greater than 90%, or complete withering is achieved) | 5 (Growth inhibition effect is equal to or greater than 90%, or complete withering is achieved) | 5 (Growth inhibition effect is equal to or greater than 90%, or complete withering is achieved) | 5 (Growth inhibition effect is equal to or greater than 90%, or complete withering is achieved) |  |  |  | 
[O-][S+](Cc1c(F)cccc1OCC(F)(F)C(F)F)c1ncc(Br)s1 (centres unmarked) [Compound 1B-26] |  |  |  |  | 5 (Growth inhibition effect is equal to or greater than 90%, or complete withering is achieved) | 5 (Growth inhibition effect is equal to or greater than 90%, or complete withering is achieved) | 5 (Growth inhibition effect is equal to or greater than 90%, or complete withering is achieved) | 4 (Growth inhibition effect is equal to or greater than 70%, and less than 90%)
O=S(=O)(Cc1c(F)cc(F)cc1OC(F)F)c1ncc(Cl)s1 [Compound 1C-44] | 5 (Growth inhibition effect is equal to or greater than 90%, or complete withering is achieved) | 5 (Growth inhibition effect is equal to or greater than 90%, or complete withering is achieved) | 5 (Growth inhibition effect is equal to or greater than 90%, or complete withering is achieved) | 5 (Growth inhibition effect is equal to or greater than 90%, or complete withering is achieved) |  |  |  | 
[O-][S+](Cc1c(Cl)cccc1OCC(F)(F)F)c1ncc(Cl)s1 (centres unmarked) [Compound 1B-10] |  |  |  |  | 5 (Growth inhibition effect is equal to or greater than 90%, or complete withering is achieved) | 5 (Growth inhibition effect is equal to or greater than 90%, or complete withering is achieved) | 5 (Growth inhibition effect is equal to or greater than 90%, or complete withering is achieved) | 5 (Growth inhibition effect is equal to or greater than 90%, or complete withering is achieved)
CC(=O)C(c1c(F)cccc1OC(F)F)S(=O)(=O)c1ncc(Cl)s1 (racemic) [Compound 1C-146] | 5 (Growth inhibition effect is equal to or greater than 90%, or complete withering is achieved) | 5 (Growth inhibition effect is equal to or greater than 90%, or complete withering is achieved) | 5 (Growth inhibition effect is equal to or greater than 90%, or complete withering is achieved) | 5 (Growth inhibition effect is equal to or greater than 90%, or complete withering is achieved) |  |  |  | 
COc1ccc(Cl)c(CS(=O)(=O)c2ncc(C(F)(F)F)s2)c1F [Compound 1C-167] | 5 (Growth inhibition effect is equal to or greater than 90%, or complete withering is achieved) | 5 (Growth inhibition effect is equal to or greater than 90%, or complete withering is achieved) | 5 (Growth inhibition effect is equal to or greater than 90%, or complete withering is achieved) |  |  |  |  | 
CCOc1ccc(Cl)cc1C(F)(F)S(=O)(=O)c1nc(F)c(Cl)s1 [Compound 1C-139] |  | 5 (Growth inhibition effect is equal to or greater than 90%, or complete withering is achieved) | 5 (Growth inhibition effect is equal to or greater than 90%, or complete withering is achieved) | 1 (Growth inhibition effect is equal to or greater than 10%, and less than 30%) |  |  |  | 
C#CCN(C)c1cccc(F)c1CS(=O)(=O)c1ncc(Cl)s1 [Compound 1C-169] | 5 (Growth inhibition effect is equal to or greater than 90%, or complete withering is achieved) | 5 (Growth inhibition effect is equal to or greater than 90%, or complete withering is achieved) | 5 (Growth inhibition effect is equal to or greater than 90%, or complete withering is achieved) |  |  |  |  | 
O=S(=O)(Cc1c(OCC(F)F)cccc1OCC(F)F)c1ncc(Cl)s1 [Compound 1C-129] | 5 (Growth inhibition effect is equal to or greater than 90%, or complete withering is achieved) | 5 (Growth inhibition effect is equal to or greater than 90%, or complete withering is achieved) | 4 (Growth inhibition effect is equal to or greater than 70%, and less than 90%) |  |  |  |  | 
[O-][S+](Cc1c(Cl)cccc1OCC(F)(F)C(F)(F)F)c1ncc(Cl)s1 (centres unmarked) [Compound 1B-14] |  |  |  |  | 5 (Growth inhibition effect is equal to or greater than 90%, or complete withering is achieved) | 5 (Growth inhibition effect is equal to or greater than 90%, or complete withering is achieved) | 5 (Growth inhibition effect is equal to or greater than 90%, or complete withering is achieved) | 
CCOC(=O)C(F)(F)Oc1cccc(Cl)c1CS(=O)(=O)c1ncc(Cl)s1 [Compound 1C-64] | 5 (Growth inhibition effect is equal to or greater than 90%, or complete withering is achieved) | 5 (Growth inhibition effect is equal to or greater than 90%, or complete withering is achieved) | 5 (Growth inhibition effect is equal to or greater than 90%, or complete withering is achieved) |  |  |  |  | 
CS(=O)(=O)c1ccc(CS(=O)(=O)c2ncc(Cl)s2)cc1 [Compound 1C-168] | 5 (Growth inhibition effect is equal to or greater than 90%, or complete withering is achieved) | 5 (Growth inhibition effect is equal to or greater than 90%, or complete withering is achieved) | 5 (Growth inhibition effect is equal to or greater than 90%, or complete withering is achieved) |  |  |  |  | 
[O-][S+](Cc1c(OCC(F)F)cccc1OCC(F)F)c1ncc(Cl)s1 (centres unmarked) [Compound 1B-15] |  |  |  |  | 3 (Growth inhibition effect equal to or greater than 50%, and less than 70%) | 5 (Growth inhibition effect is equal to or greater than 90%, or complete withering is achieved) | 5 (Growth inhibition effect is equal to or greater than 90%, or complete withering is achieved) | 
CC(c1c(Cl)cccc1OCCC(F)(F)F)S(=O)(=O)c1ncc(Cl)s1 (racemic) [Compound 1C-150] | 5 (Growth inhibition effect is equal to or greater than 90%, or complete withering is achieved) | 5 (Growth inhibition effect is equal to or greater than 90%, or complete withering is achieved) | 5 (Growth inhibition effect is equal to or greater than 90%, or complete withering is achieved) |  |  |  |  | 
[O-][S+](Cc1c(F)cccc1OCC(F)F)c1ncc(Cl)s1 (centres unmarked) [Compound 1B-7] |  |  |  |  | 5 (Growth inhibition effect is equal to or greater than 90%, or complete withering is achieved) | 5 (Growth inhibition effect is equal to or greater than 90%, or complete withering is achieved) | 5 (Growth inhibition effect is equal to or greater than 90%, or complete withering is achieved) | 
